Results published in patent US20030203055A1, “Methods of treating visceral pain syndromes” (Cypress Bioscience, Inc., priority 2002, published 2003).

Tests used:
[1] = test system: patients with a diagnosis of Irritable Bowel Syndrome (IBS) comorbid with fibromyalgia; assay: 12-week dose escalation monotherapy trial of milnacipran in Irritable Bowel Syndrome; format: in vivo, human; conditions: 11 IBS/fibromyalgia patients, 25 to 200 mg daily
Protocol: A 12-week dose escalation monotherapy trial was conducted to evaluate milnacipran's efficacy in patients with a diagnosis of Irritable Bowel Syndrome (IBS) comorbid with fibromyalgia. Patients were washed off of a variety medications-including centrally acting stimulants, antidepressants and sedative-hypnotics-over a 2-4 week period; this was followed by a two-week baseline period. After successful completion of the baseline period, patients were started on milnacipran. All patients were started at a dose of 25 mg daily, and were then escalated weekly over a 4-week period to 50, 100, and finally 200 mg daily, or until dose-limiting toxicity (DLT) was evident. In the event that DLT was evident, the patient was stabilized at the previously well-tolerated dosage, and remained on this dose for eight weeks at stable dose therapy.
The patient global impression of change (PGIC) was administered at clinic visits scheduled during the 4th, 8th, and 12th weeks of treatment. The PGIC is a highly clinically relevant instrument useful for measurement of patient improvement during controlled clinical trials. (Indeed, this instrument was the basis by which alosetron (Lotronex™) was approved by the Food and Drug Administration for the IBS indication.)
The PGIC is a conceptually simple instrument which assesses the patient's overall satisfaction with a course of drug therapy. This is done by asking the patient, “Since the start of the study, my overall status is:” with the patient choosing from the 7 choices depicted in Table 1.
For the present purposes, responses between 1-3 and 5-7 were collapsed into “Improved” and “Worse”, respectively.

norepinephrine reuptake = conditions: cited from earlier work; for activity in inhibiting norepinephrine reuptake relative to the racemic mixture: believed, Viazzo et al. 1996, Deprez et al. 1998
serotonin reuptake = conditions: cited from earlier work; for activity in inhibiting serotonin reuptake relative to the racemic mixture: believed, Viazzo et al. 1996, Deprez et al. 1998
[2] = in humans; Caccia 1998; cited from earlier work
NMDA receptor = conditions: Shuto et al. 1995, 1996, 1998, 2001; cited from earlier work

CCN(CC)C(=O)[C@@]1(c2ccccc2)C[C@H]1CN (racemic) [milnacipran, (±)-cis-2-(aminomethyl)-N,N-diethyl-1-phenylcyclopropanecarboxamide]
trial conclusion: therapy for IBS (PGIC at 12 weeks) [1]: safe and effective therapy for IBS
most common adverse event ([1]; 12 weeks): intermittent nausea
nature of milnacipran related adverse events ([1]; 12 weeks): transitory in nature
reported AE of constipation ([1]; 12 weeks): one
serious adverse events during the course of the trial ([1]; 12 weeks): no serious adverse events
IC50 (serotonin reuptake; reported, Moret et al. 1985, Palmier et al. 1989, read-out: IC50 serotonin reuptake inhibition): 200 nM
found in urine [2]: found in urine
antagonistic properties at the NMDA receptor (NMDA receptor): have antagonistic properties at the NMDA receptor

CCN(CC)C(=O)C1(c2ccc(O)cc2)CC1CN (centres unmarked) [para-hydroxylated derivative]
found in urine [2]: found in urine
